Experimental data from PubChem BioAssay (NCI).
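Values below derive from 48-hour exposures of cells grown in 96-well plates, with endpoints linearly interpolated between the two concentrations bracketing the appropriate inhibition level. GI50 = concentration required for 50% inhibition of growth. At the TGI there is no net growth.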

How the values were obtained:
Assay in all cases: DTP human tumour cell line panel, 48 h
786-0 renal = tested on: 786-0 renal
A498 renal = tested on: A498 renal
A549 NSCLC = tested on: A549 NSCLC
ACHN renal = tested on: ACHN renal
BT-549 breast = tested on: BT-549 breast
CAKI-1 renal = tested on: CAKI-1 renal
COLO 205 colon = tested on: COLO 205 colon
DU-145 prostate = tested on: DU-145 prostate
EKVX NSCLC = tested on: EKVX NSCLC
HCC-2998 colon = tested on: HCC-2998 colon
HCT-116 colon = tested on: HCT-116 colon
HCT-15 colon = tested on: HCT-15 colon
HL-60(TB) leukemia = tested on: HL-60(TB) leukemia
HOP-62 NSCLC = tested on: HOP-62 NSCLC
HS 578T breast = tested on: HS 578T breast
HT29 colon = tested on: HT29 colon
IGROV1 ovarian = tested on: IGROV1 ovarian
K-562 leukemia = tested on: K-562 leukemia
KM12 colon = tested on: KM12 colon
LOX IMVI melanoma = tested on: LOX IMVI melanoma
M14 melanoma = tested on: M14 melanoma
MALME-3M melanoma = tested on: MALME-3M melanoma
MCF7 breast = tested on: MCF7 breast
MDA-MB-231 breast = tested on: MDA-MB-231 breast
MDA-MB-435 = tested on: MDA-MB-435
MOLT-4 leukemia = tested on: MOLT-4 leukemia
NCI-H460 lung = tested on: NCI-H460 lung
NCI-H522 lung = tested on: NCI-H522 lung
NCI/ADR-RES ovarian = tested on: NCI/ADR-RES ovarian
OVCAR-3 ovarian = tested on: OVCAR-3 ovarian
OVCAR-4 ovarian = tested on: OVCAR-4 ovarian
OVCAR-5 ovarian = tested on: OVCAR-5 ovarian
OVCAR-8 ovarian = tested on: OVCAR-8 ovarian
PC-3 prostate = tested on: PC-3 prostate
RPMI-8226 leukemia = tested on: RPMI-8226 leukemia
RXF 393 renal = tested on: RXF 393 renal
SF-268 CNS = tested on: SF-268 CNS
SF-295 CNS = tested on: SF-295 CNS
SF-539 CNS = tested on: SF-539 CNS
SK-MEL-2 melanoma = tested on: SK-MEL-2 melanoma
SK-MEL-28 melanoma = tested on: SK-MEL-28 melanoma
SK-MEL-5 melanoma = tested on: SK-MEL-5 melanoma
SK-OV-3 ovarian = tested on: SK-OV-3 ovarian
SN12C renal = tested on: SN12C renal
SNB-19 CNS = tested on: SNB-19 CNS
SNB-75 CNS = tested on: SNB-75 CNS
SW-620 colon = tested on: SW-620 colon
T-47D breast = tested on: T-47D breast
TK-10 renal = tested on: TK-10 renal
U251 CNS = tested on: U251 CNS
UACC-62 melanoma = tested on: UACC-62 melanoma
UO-31 renal = tested on: UO-31 renal

Q: With `Fc1ccc(-c2ncn(C3CCNCC3)c2-c2ccnc(Oc3ccc(Cl)cc3)n2)cc1` as the molecule, how does the GI50 (786-0 renal) read?
A: The GI50 was 4.54 µM.

Q: What about the TGI (786-0 renal) of the same molecule?
A: Its TGI is 10.8 µM.

Q: What about the GI50 (A498 renal) of the same molecule?
A: The GI50 was 3.67 µM.

Q: What about the TGI (A498 renal) of the same molecule?
A: The TGI was 21.4 µM.

Q: And the GI50 (A549 NSCLC)?
A: The GI50 was 5.23 µM.

Q: And the TGI (A549 NSCLC)?
A: The TGI was 12.8 µM.

Q: And the GI50 (ACHN renal)?
A: The GI50 was 4.19 µM.

Q: And the TGI (ACHN renal)?
A: Its TGI is 10.6 µM.

Q: What about the GI50 (BT-549 breast) of the same molecule?
A: The GI50 was 5.05 µM.

Q: What about the TGI (BT-549 breast) of the same molecule?
A: The TGI was 18.8 µM.

Q: And the GI50 (CAKI-1 renal)?
A: The GI50 was 5.49 µM.

Q: What about the TGI (CAKI-1 renal) of the same molecule?
A: The TGI was greater than 16.7 µM.

Q: What about the GI50 (COLO 205 colon) of the same molecule?
A: Its GI50 is 3.76 µM.

Q: And the TGI (COLO 205 colon)?
A: The TGI was 7.31 µM.

Q: And the GI50 (DU-145 prostate)?
A: Its GI50 is 6.37 µM.

Q: And the TGI (DU-145 prostate)?
A: Its TGI is greater than 15.8 µM.

Q: And the GI50 (EKVX NSCLC)?
A: The GI50 was 6 µM.

Q: What about the TGI (EKVX NSCLC) of the same molecule?
A: The TGI was greater than 21.3 µM.

Q: What about the GI50 (HCC-2998 colon) of the same molecule?
A: The GI50 was 4.12 µM.

Q: What about the TGI (HCC-2998 colon) of the same molecule?
A: The TGI was 7.93 µM.

Q: What about the GI50 (HCT-116 colon) of the same molecule?
A: The GI50 was 3.97 µM.

Q: And the TGI (HCT-116 colon)?
A: The TGI was 7.65 µM.

Q: What about the GI50 (HCT-15 colon) of the same molecule?
A: Its GI50 is 4.24 µM.

Q: What about the TGI (HCT-15 colon) of the same molecule?
A: Its TGI is 9.46 µM.

Q: And the GI50 (HL-60(TB) leukemia)?
A: The GI50 was 4.96 µM.

Q: And the TGI (HL-60(TB) leukemia)?
A: The TGI was 11.6 µM.

Q: What about the GI50 (HOP-62 NSCLC) of the same molecule?
A: The GI50 was 3.7 µM.

Q: And the TGI (HOP-62 NSCLC)?
A: Its TGI is 7.46 µM.

Q: And the GI50 (HS 578T breast)?
A: Its GI50 is 2.58 µM.

Q: And the TGI (HS 578T breast)?
A: The TGI was greater than 11.3 µM.

Q: And the GI50 (HT29 colon)?
A: Its GI50 is 3.25 µM.

Q: And the TGI (HT29 colon)?
A: Its TGI is 6.68 µM.

Q: What about the GI50 (IGROV1 ovarian) of the same molecule?
A: The GI50 was 4.62 µM.

Q: What about the TGI (IGROV1 ovarian) of the same molecule?
A: Its TGI is 13.3 µM.

Q: And the GI50 (K-562 leukemia)?
A: Its GI50 is 4.7 µM.

Q: And the TGI (K-562 leukemia)?
A: The TGI was 11.2 µM.

Q: And the GI50 (KM12 colon)?
A: Its GI50 is 4.51 µM.

Q: What about the TGI (KM12 colon) of the same molecule?
A: Its TGI is 8.79 µM.

Q: And the GI50 (LOX IMVI melanoma)?
A: Its GI50 is 4.16 µM.

Q: And the TGI (LOX IMVI melanoma)?
A: Its TGI is 8.29 µM.

Q: And the GI50 (M14 melanoma)?
A: Its GI50 is 4.65 µM.

Q: What about the TGI (M14 melanoma) of the same molecule?
A: The TGI was 9.09 µM.

Q: What about the GI50 (MALME-3M melanoma) of the same molecule?
A: The GI50 was 4.64 µM.

Q: What about the TGI (MALME-3M melanoma) of the same molecule?
A: Its TGI is 10.1 µM.

Q: What about the GI50 (MCF7 breast) of the same molecule?
A: The GI50 was 3.93 µM.

Q: And the TGI (MCF7 breast)?
A: Its TGI is 7.7 µM.

Q: And the GI50 (MDA-MB-231 breast)?
A: The GI50 was 4.46 µM.

Q: And the TGI (MDA-MB-231 breast)?
A: The TGI was 8.6 µM.

Q: And the GI50 (MDA-MB-435)?
A: Its GI50 is 4.04 µM.

Q: And the TGI (MDA-MB-435)?
A: The TGI was 8.21 µM.

Q: What about the GI50 (MOLT-4 leukemia) of the same molecule?
A: The GI50 was 5.18 µM.

Q: What about the TGI (MOLT-4 leukemia) of the same molecule?
A: Its TGI is 12.9 µM.

Q: And the GI50 (NCI-H460 lung)?
A: Its GI50 is 3.79 µM.

Q: And the TGI (NCI-H460 lung)?
A: The TGI was 7.49 µM.

Q: What about the GI50 (NCI-H522 lung) of the same molecule?
A: Its GI50 is 4.49 µM.

Q: And the TGI (NCI-H522 lung)?
A: Its TGI is 9.34 µM.

Q: And the GI50 (NCI/ADR-RES ovarian)?
A: Its GI50 is 6.03 µM.

Q: And the TGI (NCI/ADR-RES ovarian)?
A: Its TGI is greater than 22.7 µM.

Q: And the GI50 (OVCAR-3 ovarian)?
A: The GI50 was 4.09 µM.

Q: And the TGI (OVCAR-3 ovarian)?
A: Its TGI is 7.9 µM.

Q: And the GI50 (OVCAR-4 ovarian)?
A: The GI50 was 4.15 µM.

Q: And the TGI (OVCAR-4 ovarian)?
A: Its TGI is 9.69 µM.

Q: And the GI50 (OVCAR-5 ovarian)?
A: The GI50 was 5.09 µM.

Q: And the TGI (OVCAR-5 ovarian)?
A: Its TGI is 14.9 µM.

Q: And the GI50 (OVCAR-8 ovarian)?
A: Its GI50 is 4.14 µM.

Q: And the TGI (OVCAR-8 ovarian)?
A: Its TGI is 8.99 µM.

Q: And the GI50 (PC-3 prostate)?
A: The GI50 was 6.31 µM.

Q: And the TGI (PC-3 prostate)?
A: The TGI was greater than 15.9 µM.

Q: What about the GI50 (RPMI-8226 leukemia) of the same molecule?
A: The GI50 was 5.44 µM.

Q: And the TGI (RPMI-8226 leukemia)?
A: Its TGI is 15.3 µM.

Q: What about the GI50 (RXF 393 renal) of the same molecule?
A: Its GI50 is 2.56 µM.

Q: What about the TGI (RXF 393 renal) of the same molecule?
A: The TGI was 5.91 µM.

Q: What about the GI50 (SF-268 CNS) of the same molecule?
A: Its GI50 is 8.67 µM.

Q: What about the TGI (SF-268 CNS) of the same molecule?
A: The TGI was greater than 25 µM.

Q: What about the GI50 (SF-295 CNS) of the same molecule?
A: The GI50 was 4.39 µM.

Q: What about the TGI (SF-295 CNS) of the same molecule?
A: The TGI was 9.26 µM.

Q: And the GI50 (SF-539 CNS)?
A: Its GI50 is 4.2 µM.

Q: And the TGI (SF-539 CNS)?
A: The TGI was 8.39 µM.

Q: What about the GI50 (SK-MEL-2 melanoma) of the same molecule?
A: Its GI50 is 4.45 µM.

Q: What about the TGI (SK-MEL-2 melanoma) of the same molecule?
A: Its TGI is 8.67 µM.

Q: And the GI50 (SK-MEL-28 melanoma)?
A: Its GI50 is 4.17 µM.

Q: What about the TGI (SK-MEL-28 melanoma) of the same molecule?
A: The TGI was 7.85 µM.

Q: What about the GI50 (SK-MEL-5 melanoma) of the same molecule?
A: The GI50 was 3.22 µM.

Q: And the TGI (SK-MEL-5 melanoma)?
A: The TGI was 6.41 µM.

Q: And the GI50 (SK-OV-3 ovarian)?
A: The GI50 was 3.88 µM.

Q: What about the TGI (SK-OV-3 ovarian) of the same molecule?
A: The TGI was 8.12 µM.

Q: And the GI50 (SN12C renal)?
A: The GI50 was 3.67 µM.

Q: And the TGI (SN12C renal)?
A: Its TGI is 7.17 µM.

Q: And the GI50 (SNB-19 CNS)?
A: The GI50 was 6.57 µM.

Q: What about the TGI (SNB-19 CNS) of the same molecule?
A: Its TGI is greater than 18.7 µM.

Q: And the GI50 (SNB-75 CNS)?
A: Its GI50 is 3.4 µM.

Q: What about the TGI (SNB-75 CNS) of the same molecule?
A: Its TGI is 14.3 µM.

Q: And the GI50 (SW-620 colon)?
A: Its GI50 is 3.74 µM.

Q: And the TGI (SW-620 colon)?
A: Its TGI is 7.3 µM.

Q: And the GI50 (T-47D breast)?
A: The GI50 was 2.74 µM.

Q: And the TGI (T-47D breast)?
A: The TGI was 6.71 µM.

Q: And the GI50 (TK-10 renal)?
A: The GI50 was 3.97 µM.

Q: And the TGI (TK-10 renal)?
A: Its TGI is 7.97 µM.

Q: What about the GI50 (U251 CNS) of the same molecule?
A: Its GI50 is 3.66 µM.

Q: And the TGI (U251 CNS)?
A: Its TGI is 7.24 µM.

Q: What about the GI50 (UACC-62 melanoma) of the same molecule?
A: The GI50 was 4.18 µM.

Q: What about the TGI (UACC-62 melanoma) of the same molecule?
A: Its TGI is 8.04 µM.

Q: And the GI50 (UO-31 renal)?
A: The GI50 was 3.38 µM.

Q: What about the TGI (UO-31 renal) of the same molecule?
A: The TGI was 12.2 µM.
